Common to all, as to assay: biochemical
The target of one test is BChE (Homo sapiens, UniProt P06276). Conditions: mean ± standard error; Lineweaver-Burk; read-out: K I BChE. The method, then:
(§1) First, purification of hCA I and hCA II enzymes for this study followed a modified procedure derived from prior literature sources. To evaluate the inhibitory effects, the esterase activities of hCA isoforms were assessed using the p‐nitrophenylacetate substrate, which is converted by both isoforms to the p‐nitrophenolate ion, as described in our prior studies. The assessment of ChE activities involved a modified adaptation of the Ellman's method, incorporating acetylthiocholine iodide for AChE and […] for BChE as the respective substrates.
(§2) The inhibition effects of the novel sulfonamide‐bearing pyrazolone derivatives were determined with different inhibitor concentrations (at least five) against hCA isoenzymes and ChEs. The IC 50 of the derivatives was calculated from Activity (%)–[inhibitor] graphs for derivatives. The inhibition types and K I values were found by Lineweaver and Burk's curves. The data analysis and graph generation were performed using GraphPad Prism version 8 for Mac (GraphPad Software, La Jolla, California, USA). The goodness of fit for enzyme inhibition models was compared using the extra sum‐of‐squares F test and the AICc approach.

For the next test, the target named is hCA II (Homo sapiens, UniProt P00918). It counts as biochemical. The note with it: Lineweaver-Burk; for Ki: mean ± standard error, read-out: K I hCA II. As to the method:
as §1, §2

Another test has as its target AChE (Homo sapiens, UniProt P22303). It counts as biochemical. Conditions: Lineweaver-Burk; for Ki: mean ± standard error, read-out: K I AChE. As to the method:
as §1, §2

In another test the target is hCA I (Homo sapiens, UniProt P00915). The format is biochemical. Conditions: Lineweaver-Burk; for Ki: mean ± standard error, read-out: K I hCA I. The method, then:
as §1, §2

Sequence of BChE (P06276 29-602, species assumed): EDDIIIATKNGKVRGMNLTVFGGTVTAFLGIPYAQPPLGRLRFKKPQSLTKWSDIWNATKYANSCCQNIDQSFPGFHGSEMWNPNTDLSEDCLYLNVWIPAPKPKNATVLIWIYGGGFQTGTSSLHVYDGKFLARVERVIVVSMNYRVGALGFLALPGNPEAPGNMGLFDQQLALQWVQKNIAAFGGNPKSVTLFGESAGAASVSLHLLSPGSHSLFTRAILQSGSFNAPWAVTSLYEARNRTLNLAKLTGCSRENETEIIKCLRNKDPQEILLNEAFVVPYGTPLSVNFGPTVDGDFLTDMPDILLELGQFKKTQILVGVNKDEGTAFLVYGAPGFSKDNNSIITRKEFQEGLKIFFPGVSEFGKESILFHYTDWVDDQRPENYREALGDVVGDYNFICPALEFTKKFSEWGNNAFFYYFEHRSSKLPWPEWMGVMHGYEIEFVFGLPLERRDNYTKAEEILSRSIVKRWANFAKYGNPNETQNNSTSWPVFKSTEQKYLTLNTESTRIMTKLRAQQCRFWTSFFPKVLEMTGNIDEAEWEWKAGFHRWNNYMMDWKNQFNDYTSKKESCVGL
Sequence of AChE (P22303 32-614): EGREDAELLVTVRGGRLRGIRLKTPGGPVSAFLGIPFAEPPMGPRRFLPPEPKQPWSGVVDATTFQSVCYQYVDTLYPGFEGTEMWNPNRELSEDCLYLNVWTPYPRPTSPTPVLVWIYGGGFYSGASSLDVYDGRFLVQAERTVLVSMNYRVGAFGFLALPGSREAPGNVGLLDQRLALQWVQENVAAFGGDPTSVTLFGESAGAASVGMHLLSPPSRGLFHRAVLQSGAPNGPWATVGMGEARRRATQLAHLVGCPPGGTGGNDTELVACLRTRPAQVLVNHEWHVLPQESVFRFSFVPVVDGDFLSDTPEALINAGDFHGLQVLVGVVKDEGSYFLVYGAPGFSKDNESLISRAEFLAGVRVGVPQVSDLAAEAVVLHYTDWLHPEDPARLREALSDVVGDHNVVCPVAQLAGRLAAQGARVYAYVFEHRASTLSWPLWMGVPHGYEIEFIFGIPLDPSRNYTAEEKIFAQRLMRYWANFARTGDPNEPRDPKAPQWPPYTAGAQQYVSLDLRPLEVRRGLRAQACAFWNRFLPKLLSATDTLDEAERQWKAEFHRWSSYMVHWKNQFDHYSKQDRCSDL
Sequence of hCA I (P00915 whole entry): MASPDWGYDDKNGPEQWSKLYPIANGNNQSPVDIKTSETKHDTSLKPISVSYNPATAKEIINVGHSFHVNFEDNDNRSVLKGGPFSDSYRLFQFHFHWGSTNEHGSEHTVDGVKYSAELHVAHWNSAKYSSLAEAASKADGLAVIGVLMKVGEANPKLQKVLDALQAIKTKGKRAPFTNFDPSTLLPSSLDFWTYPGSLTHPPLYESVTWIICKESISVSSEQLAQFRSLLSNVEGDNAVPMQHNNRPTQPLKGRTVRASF

As to `COc1ccc(C(=O)N2N=C(C)C(N=Nc3ccc(S(N)(=O)=O)cc3)C2=O)cc1` (stereo not drawn) [1e, 4‐([1‐(4‐Methoxybenzoyl)‐3‐Methyl‐5‐Oxo‐4,5‐Dihydro‐1H‐Pyrazol‐4‐Yl]Diazenyl) Benzenesulfonamide], the Ki on BChE amounted to 80.9 ± 9.41 nM; on hCA II, 63.7 ± 6.71 nM; on AChE, 14 ± 1.49 nM; on hCA I, 75.5 ± 4.91 nM. Also, at hCA II, the “inhibition type hCA II” value is “competitive”. Also, the “inhibition type hCA I” value on hCA I was “non‐competitive”.

For `CC1=NN(C(=O)c2ccc(C)cc2)C(=O)C1/N=N/c1ccc(S(N)(=O)=O)cc1` (stereo not drawn) [1d, 4‐([3‐Methyl‐1‐(4‐Methylbenzoyl)‐5‐Oxo‐4,5‐Dihydro‐1H‐Pyrazol‐4‐Yl]Diazenyl) Benzenesulfonamide], the Ki on BChE was found to be 64.6 ± 7.59 nM; at hCA II, 42.6 ± 2.92 nM; on AChE, 16 ± 1.6 nM; on hCA I, 65.1 ± 3 nM.

For the molecule `CC1=NN(C(=O)c2ccccc2)C(=O)C1/N=N/c1ccc(S(N)(=O)=O)cc1` (stereo not drawn) [1a, 4‐[(1‐Benzoyl‐3‐Methyl‐5‐Oxo‐4,5‐Dihydro‐1H‐Pyrazol‐4‐Yl)diazinyl] Benzenesulfonamide], the Ki at BChE was found to be 95.5 ± 5.78 nM; at hCA II, 65.5 ± 5.42 nM; on AChE, 11.2 ± 1.15 nM; at hCA I it was 53.9 ± 5.03 nM.

With `CC1=NN(C(=O)c2cccc(Cl)c2)C(=O)C1/N=N/c1cccc(S(N)(=O)=O)c1` (stereo not drawn) [2f, 3‐([1‐(3‐Chlorobenzoyl)‐3‐Methyl‐5‐Oxo‐4,5‐Dihydro‐1H‐Pyrazol‐4‐Yl]Diazenyl) Benzenesulfonamide], the Ki was found to be 136 ± 17.4 nM on BChE, 33.3 ± 4.09 nM on hCA II, 9.52 ± 0.86 nM on AChE and 37.7 ± 2.06 nM on hCA I.

Regarding `CC1=NN(C(=O)c2ccc(Br)cc2)C(=O)C1N=Nc1ccc(S(N)(=O)=O)cc1` (stereo not drawn) [1c, 4‐([1‐(4‐Bromobenzoyl)‐3‐Methyl‐5‐Oxo‐4,5‐Dihydro‐1H‐Pyrazol‐4‐Yl]Diazenyl) Benzenesulfonamide], the Ki was 34.8 ± 5.88 nM at BChE, 85.4 ± 6.6 nM at hCA II, 9.47 ± 1.23 nM at AChE and 49.2 ± 4.27 nM at hCA I. Also, on hCA II, the “inhibition type hCA II” value is recorded as “non‐competitive”.

As to `CC1=NN(C(=O)c2ccc(Br)cc2)C(=O)C1/N=N/c1cccc(S(N)(=O)=O)c1` (stereo not drawn) [2c, 3‐([1‐(4‐Bromobenzoyl)‐3‐Methyl‐5‐Oxo‐4,5‐Dihydro‐1H‐Pyrazol‐4‐Yl]Diazenyl) Benzenesulfonamide], the Ki worked out at 96 ± 5.44 nM at BChE, 28.8 ± 2.51 nM on hCA II, 8.43 ± 1.42 nM on AChE and 44.6 ± 2.84 nM on hCA I.

For the molecule `CC1=NN(C(=O)c2ccc(C)cc2)C(=O)C1N=Nc1cccc(S(N)(=O)=O)c1` (stereo not drawn) [2d, 3‐([3‐Methyl‐1‐(4‐Methylbenzoyl)‐5‐Oxo‐4,5‐Dihydro‐1H‐Pyrazol‐4‐Yl]Diazenyl) Benzenesulfonamide], the Ki at BChE is 88.6 ± 12.9 nM; at hCA II, 36.2 ± 2.78 nM; at AChE, 15.8 ± 1.04 nM; on hCA I, 18 ± 2.86 nM. For the same molecule, the “inhibition type hCA I” value against hCA I was “competitive”.

`CC1=NN(C(=O)c2cccc(Cl)c2)C(=O)C1/N=N/c1ccc(S(N)(=O)=O)cc1` (stereo not drawn) [1f, 4‐([1‐(3‐Chlorobenzoyl)‐3‐Methyl‐5‐Oxo‐4,5‐Dihydro‐1H‐Pyrazol‐4‐Yl]Diazenyl) Benzenesulfonamide]: the Ki at BChE was 58.2 ± 8.11 nM; at hCA II, 62.2 ± 4.19 nM; on AChE, 7.45 ± 0.98 nM; at hCA I, 66.8 ± 5.15 nM. In addition, at AChE, the “inhibition type AChE” value is given as “competitive”.

On to `CC1=NN(C(=O)c2ccc(Cl)cc2)C(=O)C1/N=N/c1ccc(S(N)(=O)=O)cc1` (stereo not drawn) [1b, 4‐([1‐(4‐Chlorobenzoyl)‐3‐Methyl‐5‐Oxo‐4,5‐Dihydro‐1H‐Pyrazol‐4‐Yl]Diazenyl) Benzenesulfonamide], for which the Ki on BChE came to 73.3 ± 12.2 nM; on hCA II, 50.8 ± 3.36 nM; on AChE, 13.3 ± 1.43 nM; on hCA I it was 55.9 ± 3.29 nM.

On to `CC1=NN(C(=O)c2ccc(Cl)cc2)C(=O)C1/N=N/c1cccc(S(N)(=O)=O)c1` (stereo not drawn) [2b, 3‐([1‐(4‐Chlorobenzoyl)‐3‐Methyl‐5‐Oxo‐4,5‐Dihydro‐1H‐Pyrazol‐4‐Yl]Diazenyl) Benzenesulfonamide], for which the Ki was 76.4 ± 11.6 nM at BChE, 24.8 ± 1.57 nM on hCA II, 8.66 ± 0.93 nM on AChE and 37.1 ± 2.43 nM at hCA I. Also, the “inhibition type hCA II” value against hCA II is “non‐competitive”.

As for `COc1ccc(C(=O)N2N=C(C)C(/N=N/c3cccc(S(N)(=O)=O)c3)C2=O)cc1` (stereo not drawn) [2e, 3‐([1‐(4‐Methoxybenzoyl)‐3‐Methyl‐5‐Oxo‐4,5‐Dihydro‐1H‐Pyrazol‐4‐Yl]Diazenyl) Benzenesulfonamide], the Ki came to 93.8 ± 10.5 nM on BChE, 35.4 ± 1.94 nM at hCA II, 13.5 ± 0.91 nM on AChE and 49 ± 6.25 nM at hCA I.

`CC1=NN(C(=O)c2ccccc2)C(=O)C1/N=N/c1cccc(S(N)(=O)=O)c1` (stereo not drawn) [2a, 3‐[(1‐Benzoyl‐3‐Methyl‐5‐Oxo‐4,5‐Dihydro‐1H‐Pyrazol‐4‐Yl)diazinyl] Benzenesulfonamide]: the Ki on BChE is 98.3 ± 7.34 nM; on hCA II, 55.7 ± 4.14 nM; on AChE, 10.5 ± 0.9 nM; at hCA I, 73.2 ± 7.17 nM.

The values are drawn from publication PMC11932959, “Sulfonamide‐Bearing Pyrazolone Derivatives as Multitarget Therapeutic Agents: Design, Synthesis, Characterization, Biological Evaluation, In Silico ADME/T Profiling and Molecular Docking Study” (Pharmacology Research & Perspectives, 2025).
